Measured values as given in US20030100567A1, “Tyrosine kinase inhibitors” (priority 2001, published 2003).

Key:
Details in all cases: in vivo
[1] = Pharmacokinetics in dog
[2] = Pharmacokinetics in rat
[3] = Pharmacokinetics in rhesus monkey

Structure (SMILES)	clearance [1]	half-life [1]	bioavailability [1]	clearance [2]	half-life [2]	bioavailability [2]	bioavailability [3]	clearance [3]	half-life [3]
CC(=O)N1CCN(Cc2ccnc(Nc3ncc(C#N)s3)c2C)CC1	14 mL/min/kg	1.4 h							
CNC(=O)N1CCN(Cc2ccnc(Nc3ncc(C#N)s3)c2)CC1 [Compound 4-4, 4-[2-(5-cyano-thiazol-2-ylamino)-pyridin-4-ylmethyl]-piperazine-1-carboxylic acid methylamide]	0.5 mL/min/kg	17.4 h	99%	10.7 mL/min/kg	1.9 h	49%	43%	13.4 mL/min/kg	1.7 h
CS(=O)(=O)C1CCN(Cc2ccnc(Nc3ncc(C#N)s3)c2)CC1 [Compound 5-6, 2-[(4-{[4-(methylsulfonyl)piperidin-1-yl]methyl}pyridin-2-yl)amino]-1,3-thiazole-5-carbonitrile]	1.8 mL/min/kg	6.3 h	95%	16.3 mL/min/kg	1.1 h	70%	67%	3 mL/min/kg	5.5 h

More lines, now with the values ahead:

clearance [1]	half-life [1]	bioavailability [1]	clearance [2]	half-life [2]	bioavailability [2]	bioavailability [3]	clearance [3]	half-life [3]	Structure (SMILES)
2.6 mL/min/kg	2.1 h								N#Cc1cnc(Nc2cc(CN3CCN(C(N)=O)CC3)ccn2)s1
3.6 mL/min/kg	3.4 h	49%	15.5 mL/min/kg	1.6 h					CN(C)C(=O)N1CCN(Cc2ccnc(Nc3ncc(C#N)s3)c2)CC1
